Laboratory results reported in patent US20090069336A1, “PYRIMIDOTHIOPHENE COMPOUNDS” (VERNALIS (CAMBRIDGE) LIMITED., priority 2004, published 2009).

Columns and labels:
human full-length HSP90 = target: T1, human full-length HSP90 (Homo sapiens, UniProt P08238); assay: Fluorescence polarization assay (competitive displacement of probe RBT0051001-FAM from HSP90); type: binding; settings: activity range stated in each example; read-out: activity in the fluorescence polarization assay
T1 construct: E. coli expressed human full-length HSP90 protein, purified >95%; made in house; host or cells: E. coli
T1 sequence (P08238 whole entry): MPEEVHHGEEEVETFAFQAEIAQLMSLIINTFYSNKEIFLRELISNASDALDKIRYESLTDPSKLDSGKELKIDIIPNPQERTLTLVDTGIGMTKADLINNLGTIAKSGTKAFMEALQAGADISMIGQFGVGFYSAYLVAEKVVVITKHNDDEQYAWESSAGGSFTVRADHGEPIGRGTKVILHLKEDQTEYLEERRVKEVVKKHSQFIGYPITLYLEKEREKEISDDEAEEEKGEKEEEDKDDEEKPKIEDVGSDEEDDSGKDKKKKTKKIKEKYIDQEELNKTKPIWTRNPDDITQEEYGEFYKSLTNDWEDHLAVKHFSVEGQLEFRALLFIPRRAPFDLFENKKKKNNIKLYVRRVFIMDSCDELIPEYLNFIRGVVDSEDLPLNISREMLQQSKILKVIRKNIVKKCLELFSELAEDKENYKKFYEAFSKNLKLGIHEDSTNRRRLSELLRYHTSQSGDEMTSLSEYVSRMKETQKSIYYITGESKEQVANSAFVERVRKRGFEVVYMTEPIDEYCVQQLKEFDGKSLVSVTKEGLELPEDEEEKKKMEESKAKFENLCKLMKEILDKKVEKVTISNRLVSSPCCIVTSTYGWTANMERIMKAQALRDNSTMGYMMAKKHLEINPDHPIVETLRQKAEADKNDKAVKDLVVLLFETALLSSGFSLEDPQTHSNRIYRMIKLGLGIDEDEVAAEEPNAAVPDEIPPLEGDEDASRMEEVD
Source text: Fluorescence Polarization Assay
Fluorescence polarization {also known as fluorescence anisotropy} measures the rotation of a fluorescing species in solution, where the larger molecule the more polarized the fluorescence emission. When the fluorophore is excited with polarized light, the emitted light is also polarized. The molecular size is proportional to the polarization of the fluorescence emission.
The fluoroscein-labelled probe —RBT0051001-FAM—
binds to HSP90 {full-length human, full-length yeast or N-terminal domain HSP90} and the anisotropy {rotation of the probe:protein complex} is measured.
Test compound is added to the assay plate, left to equilibrate and the anisotropy measured again. Any change in anisotropy is due to competitive binding of compound to HSP90, thereby releasing probe.
Chemicals are of the highest purity commercially available and all aqueous solutions are made up in AR water. • 1) Costar 96-well black assay plate #3915 • 2) Assay buffer of (a) 100 mM Tris pH7.4; (b) 20 mM KCl; (c) 6 mM MgCl2. Stored at room temperature. • 3) BSA (bovine serum albumen) 10 mg/ml (New England Biolabs # B9001S) • 4) 20 mM probe in 100% DMSO stock concentration. Stored in the dark at RT. Working concentration is 200 nM diluted in AR water and stored at 4° C. Final concentration in assay 80 nM. • 5) E. coli expressed human full-length HSP90 protein, purified >95% (see, e.g., Panaretou et al., 1998) and stored in 50 μL aliquots at −80° C.
• 1) Add 100 μl 1× buffer to wells 11A and 12A (=FP BLNK) • 2) Prepare assay mix—all reagents are kept on ice with a lid on the bucket as the probe is light-sensitive.
• 3) Aliquot 100 μl assay mix to all other wells • 4) Seal plate and leave in dark at room temp for 20 minutes to equilibrate Compound Dilution Plate—1×3 dilution series • 1) In a clear 96-well v-bottom plate-{# VWR 007/008/257} add 10 μl 100% DMSO to wells B1 to H11 • 2) To wells A1 to A11 add 17.5 μl 100% DMSO • 3) Add 2.5 μl cpd to A1. This gives 2.5 mM {50×} stock cpd-assuming cpds 20 mM. • 4) Repeat for wells A2 to A10. Control in columns 11 and 12. • 5) Transfer 5 μl from row A to row B—not column 12. Mix well. • 6) Transfer 5 μl from row B to row C. […] In column 11 {provides standard curve} only add compound B11-H11. Add 2 μl of 100 mM standard cpd to wells B12-H12 {is positive control} • 13) The Z′ factor is calculated from zero controls and positive wells. It typically gives a value of 0.7-0.9.
The compounds tested in the above assay were assigned to one of two activity ranges, namely A=<10 μM; B=>10 μM, and those assignments are reported above.

[1] = Sulforhodamine B (SRB) growth inhibition / growth arrest assay; type: cell-based; settings: cell line not stated
Experimental: A growth inhibition assay was also employed for the evaluation of candidate HSP90 inhibitors:
Assessment of cytotoxicity by Sulforhodamine B (SRB) assay: calculation of 50% inhibitory concentration (IC50).
• 1) Determine cell number by haemocytometer. • 2) Using an 8 channel multipipettor, add 160 μl of the cell suspension (3600 cells/well or 2×10^4 cells/ml) to each well of a 96-well microtitre plate. • 3) Incubate overnight at 37° C. in a CO2 incubator. […]
• 8) Tip off medium into sink and immerse plate slowly into 10% ice cold trichloroacetic acid (TCA). […] Leave for 15 mins. • 12) Wash off unbound SRB stain with four washes of 1% acetic acid. • 13) Dry plates in incubator. • 14) Solubilise SRB using 100 μl of 10 mM Tris base and put plates on plate shaker for 5 mins. • 15) Determine absorbance at 540 nm using a plate reader. Calculate mean absorbance for quadruplicate wells and express as a percentage of value for control, untreated wells. • 16) Plot % absorbance values versus log drug concentration and determine the IC50.

IC50 (human full-length HSP90) [µM]	Compound	IC50 [1] [µM]
< 10	Nc1nc(-c2cc(OCc3ccccc3)c(Cl)cc2Cl)c2cc(C(=O)O)sc2n1 [Example 37, 2-Amino-4-[5-benzyloxy-2,4-dichloro-phenyl]-thieno[2,3-d]pyrimidine-6-carboxylic acid]	–
< 10	Nc1nc(-c2ccc(Cl)cc2Cl)c2cc(-c3n[nH]c(N)n3)sc2n1 [Example 38, 6-(5-Amino-1H-[1,2,4]triazol-3-yl)-4-(2,4-dichloro-phenyl)-thieno[2,3-d]pyrimidin-2-ylamine]	–
< 10	CCN(CC)CCOc1cc(-c2nc(N)nc3sc(-c4n[nH]c(N)n4)cc23)c(Cl)cc1Cl [Example 39, 6-(5-Amino-1H-[1,2,4]triazol-3-yl)-4-[2,4-dichloro-5-(2-diethylamino-ethoxy)-phenyl]-thieno[2,3-d]pyrimidin-2-ylamine]	–
< 10	CCN(CC)CCOc1cc(-c2nc(N)nc3sc(-c4nn[nH]n4)cc23)c(Cl)cc1Cl [Example 40, 4-[2,4-Dichloro-5-(2-diethylamino-ethoxy)-phenyl]-6-(2H-tetrazol-5-yl)-thieno[2,3-d]pyrimidin-2-ylamine]	–
< 10	CCOC(=O)/C=C/c1cc2c(-c3cc(OCCN(CC)CC)c(Cl)cc3Cl)nc(N)nc2s1 [Example 41, 3-{2-Amino-4-[2,4-Dichloro-5-(2-diethylamino-ethoxy)-phenyl]-thieno[2,3-d]pyrimidin-6-yl}-acrylic acid ethyl ester]	–

Further lines, the compound ahead of its results:

Compound	IC50 (human full-length HSP90) [µM]	IC50 [1] [µM]
Cc1ccc(-c2nc(N)nc3sc(-c4ncon4)cc23)c(C)c1 [Example 10, 4-(2,4-dimethyl-phenyl)-6-[1,2,4]oxadiazol-3-yl-thieno[2,3-d]pyrimidin-2-ylamine]	< 10	< 50
CCN(CC)CCOc1cc(-c2nc(N)nc3sc(-c4cc(C)n[nH]4)cc23)c(Cl)cc1Cl [Example 35, 4-[2,4-dicholoro-5-(2-diethylamino-ethoxy)-phenyl]-6-(5-methyl-2H-pyrazol-3-yl)-thieno[2,3-d]pyrimidine-2-ylamine]	< 10	–
CCN(CC)CCOc1cc(-c2nc(N)nc3sc(C(=O)O)cc23)c(Cl)cc1Cl [Example 36, 2-Amino-4-[2,4-dichloro-5-(2-diethylamino-ethoxy)-phenyl]-thieno[2,3-d]pyrimidine-6-carboxylic acid]	< 10	–
